Test results reported in patent EP1543832A2, “Use of trans-4[4-(3-chloro-4-methoxy-benzylamino) benzothieno[2,3-d]pyrimidin-2-yl]-cyclohexanecarboxylic acid in the treatment of extrapyramidal movement disorders” (MERCK PATENT GmbH, priority 2003, dated 2005).

How the values were obtained:
[1] = system: posthypoxic myoclonus; assay: Posthypoxic myoclonus after cardiac arrest; assay type: in vivo; conditions: rats resuscitated after cardiac arrest for 8 minutes
Procedure: A typical animal model for myoclonus is myoclonus induced by an acute hypoxic episode according to D.D. Truong et al., Mov. Dsiord., 1994; 9: 201-206). In this model of posthypoxic myoclonus, rats undergo a cardiac arrest for 8 minutes and are resuscitated thereafter. Myoclonic jerks occur spontaneously but can be provoked by auditory stimulation, too, worsening over the days following cardiac arrest.

[2] = system: neuroleptics-induced muscle rigidity in rats; assay: Neuroleptics-induced muscle rigidity (haloperidol challenge); assay type: in vivo; conditions: resistance to passive flexion and extension of the hind limb
Description: A typical animal model is neuroleptics-induced muscle rigidity in rats according to S. Wolfarth et al., Arch. Pharmacol. 1992; 345: 209-212. Rats are challenged with the conventional neuroleptic drug haloperidol which enhances muscle tone. Muscle tone is electromechanically measured as the resistence to passive flexion and extension of the hind limb. Trans-4-[4-(3-chloro-4-methoxybenzylamino)-benzothieno-[2,3-d]pyrimidin-2-yl]cyclo-hexanecarboxylic acid or a physiologically acceptable salt thereof thereof decrease the mucle tone enhanced by haloperidol.

[3] = system: striatonigral degeneration approach in the rat; assay: Striatonigral degeneration model (6-hydroxydopamine plus quinolinic acid), turning behavior; assay type: in vivo; conditions: automated recorder
Description: Another more recent animal model is the striatonigral degeneration approach in the rat according to G.K. Wenning et al., J. Neural Transm. Suppl., 1999; 55: 103-113. Rats receive an unilateral injection of 6-hydroxydopamine into the left medial forebrain bundle followed by an injection of quinolinic acid into the ipsilateral striatum inducing nigrostriatal degeneration. The degeneration results in turning behavior to a challenge with dopaminomimetics such as apomorphine or amphetamine. Turning behavior is measured by an automated recorder.

[4] = system: catalepsy; assay: Ability of a drug to induce catalepsy (extrapyramidal motor side effects); assay type: in vivo, rat; conditions: measured in e.g. rodents by the ability of a drug to induce catalepsy
Procedure: (§1) Extrapyramidal motor side effects in e.g. rodents are measured by the ability of a drug to induce catalepsy. Catalepsy is defined as a state where an animal continues to remain in an unnormal (nonphysiological 'uncomfortable') posture for a long time (e.g.: M.E. Stanley and S.D. Glick, Neuropharmacology, 1996; 15: 393-394; C.J.E. Niemegeers and P. Janssen, Life Sci., 1979, […]). For example, if a hindpaw of a rat is placed on an elevated level, e.g. a platform elevated 3 cm above ground level, a normal rat immediately withdraws the hindpaw from the platform to the ground level. A cataleptic rat remains in this unnatural posture even for minutes.

[5] = system: reserpinized rat or mouse; assay: Reserpine-induced akinesia in activity meters; assay type: in vivo; conditions: 24 h after reserpine
Procedure: A typical animal model is the reserpinized rat or mouse (e.g. M.S. Starr and B.S. Starr, J. Neural Transm. - Park. Dis. Dement. Sect., 1994; 7: 133-142; M. Gossel et al., J. Neural Transm. - Park. Dis. Dement. Sect., 1995; 10: 27-39; N.R. Hughes et al., Mov. Disord., 1998; 13: 228-233). Reserpine is a potent depleter of monoamines and produces nearly complete akinesia in both species. Prominent 24 h after application, the distance travelled and the time active is nearly zero as measured in conventional activity meters.

[6] = system: catalepsy induced by conventional antidopaminergic drugs; assay: Catalepsy induced by conventional antidopaminergic drugs such as haloperidol; conditions: rat, in vivo
Procedure: as §1

[7] = system: Weaver mutant mouse; assay: Weaver mutant mouse, locomotor activity in activity cages; assay type: in vivo
Description: Typical genetic models in mutant animals are the Campus Syndrome in the Pietrain pig according to A. Richter et al. (Exp. Neurology, 1995; 134: 205-213) or the Weaver mutant mouse according to J.R. Simon and B. Ghetti (Mol. Neurobiol., 1994; 9: 183-189). In the Campus Syndrome model, these mutant pigs show a high-frequency tremor when standing and during locomotion, but not while lying at rest. Assessment of tremor is made by accelerometric recording. In the Weaver mutant mouse, degenerative cerebellar atrophy is fould in association with tremor, gait instability, and toppling over the sides after a few steps.
Trans-4-[4-(3-chloro-4-methoxybenzylamino)-benzothieno-[2,3-d]pyrimidin-2-yl]cyclohexanecarboxylic acid or a physiologically acceptable salt thereof improve the Campus Syndrome in the Pietrain pig, i.e. reduce disabling tremor when standing and during locomotion, and enhance locomotor activity in the Weaver mutant mouse.

COc1ccc(CNc2nc([C@H]3CC[C@H](C(=O)O)CC3)nc3sc4ccccc4c23)cc1Cl [trans-4-[4-(3-chloro-4-methoxybenzylamino)-benzothieno-[2,3-d]pyrimidin-2-yl]cyclohexanecarboxylic acid]
number of spontaneous and autitory-evoked myoclonic jerks [1]: dose-dependently reduce | muscle tone enhanced by haloperidol [2]: decrease | Turning behavior induced by apomorphine or amphetamine [3]: dose-dependently antagonized | liability to induce extrapyramidal side effects [4]: extremely low liability to induce extrapyramidal side effects | akinesia [5]: dose-dependently reduced | distance travelled and time active ([5]; conventional activity meters): restored distance travelled and time active to about the level of normal animals | prevention of catalepsy induced by conventional antidopaminergic drugs [6]: able to prevent catalepsy | reversal of already existing catalepsy induced by conventional antidopaminergic drugs such as haloperidol [6]: reverses already existing catalepsy | locomotor activity [7]: enhance
